Reference: publication PMC4424277, “Astrocytosis precedes amyloid plaque deposition in Alzheimer APPswe transgenic mouse brain: a correlative positron emission tomography and in vitro imaging study” (European Journal of Nuclear Medicine and Molecular Imaging, 2015)

Target: T1, beta-amyloid (Aβ) (Homo sapiens, UniProt P05067)
T1 construct: gene APP; Aβ plaques (fibrillar deposits) in cortical homogenates of APPswe (Tg2576) mice expressing APP with the Swedish mutation
Experiment: radioligand saturation binding in APPswe mouse cortical homogenates; autoradiography

T1 sequence (P05067 18-770): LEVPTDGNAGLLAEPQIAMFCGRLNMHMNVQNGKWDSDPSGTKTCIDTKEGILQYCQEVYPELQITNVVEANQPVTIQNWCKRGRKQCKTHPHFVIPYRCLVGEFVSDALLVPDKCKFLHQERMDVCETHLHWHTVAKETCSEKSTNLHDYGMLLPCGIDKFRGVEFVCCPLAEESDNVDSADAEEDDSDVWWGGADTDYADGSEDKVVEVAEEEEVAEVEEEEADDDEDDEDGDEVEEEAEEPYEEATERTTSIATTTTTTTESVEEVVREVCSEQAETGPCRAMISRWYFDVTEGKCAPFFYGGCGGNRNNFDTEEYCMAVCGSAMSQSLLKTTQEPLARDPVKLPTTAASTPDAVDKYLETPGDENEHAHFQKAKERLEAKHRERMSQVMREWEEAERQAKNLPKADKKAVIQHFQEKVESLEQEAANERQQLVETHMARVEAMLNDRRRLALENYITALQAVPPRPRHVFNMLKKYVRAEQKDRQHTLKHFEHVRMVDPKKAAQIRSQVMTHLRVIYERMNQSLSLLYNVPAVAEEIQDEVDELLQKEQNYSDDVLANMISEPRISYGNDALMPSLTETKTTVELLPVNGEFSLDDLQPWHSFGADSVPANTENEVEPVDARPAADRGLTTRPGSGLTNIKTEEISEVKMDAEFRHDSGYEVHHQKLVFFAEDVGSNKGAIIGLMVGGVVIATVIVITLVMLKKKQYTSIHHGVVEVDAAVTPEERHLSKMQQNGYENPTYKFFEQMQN

CNc1ccc(-c2nc3ccc(O)cc3s2)cn1 [AZD2184]
Kd: 10.6 nM
